Test results from paper PMC3408453, “A Foldamer-Dendrimer Conjugate Neutralizes Synaptotoxic β-Amyloid Oligomers” (PLoS ONE, 2012).

What was measured:
[1] = system: LTP in mouse hippocampal slices impaired by Aβ(1–42) oligomers; test: Ex vivo hippocampal slice LTP electrophysiology; format: cell-based; settings: mean ±SEM
Source text: We investigated whether 7 could protect against the synaptic plasticity damage caused by Aβ(1–42) oligomers by using a hippocampus slice LTP model. LTP, a correlate of learning and memory has been repeatedly shown to be impaired by Aβ(1–42) oligomers. As negative control, substance 11 was applied. The experimenters were blind to the compounds tested.
These observations indicate the significant protective effect of 7 (Figure 12D). To test the effects of valency, LTP experiments were repeated with 8 under the same conditions.
Via standard procedures, 350-µm-thick transverse hippocampal slices were prepared from the brain of 7-months-old mice (CD1, Animal Breeding Facility, University of Szeged) with a McIlwain tissue chopper (Campden Instruments, Loughborough, UK). Slices were incubated in standard artificial cerebrospinal fluid (ACSF) at ambient temperature for 60 min, during constant gassing with 95% O2–5% CO2. The ACSF contained (mM): NaCl, 130; KCl, 3.5; CaCl2, 2; MgCl2, 2; NaH2PO4, 0.96; NaHCO3, 24; and D-glucose, 10 (pH 7.4). Individual slices were transferred to a 3D-MEA chip with 60 tip-shaped and 60-μm-high electrodes spaced at 100 μm (Ayanda Biosystems, S.A., Lausanne, Switzerland). The slice was continuously perfused with oxygenated ACSF (1.5 ml min^−1 at 34 °C) containing 720 nM Aβ(1–42) oligomers and/or 950 nM ligand throughout the recording session. Data were recorded with a standard, commercially available MEA setup (Multi Channel Systems MCS GmbH, Reutlingen, Germany). The Schaffer-collateral was stimulated by injecting a biphasic current waveform (−100/+100 μs) through one selected electrode at 0.033 Hz. Care was taken to choose the stimulating electrode in the same region from one slice to the other. The peak-to-peak amplitudes of fEPSPs at the stratum pyramidale and stratum radiatum of CA1 were analyzed. After a 30-min incubation period, the threshold and the maximum of stimulation intensity for evoke responses was determined. To evoke responses, 30% of the maximal stimulation intensity was used. LTP was induced by applying a theta-burst stimulation (TBS) pattern at the maximal stimulation intensity. The TBS comprised four trains administered at 20-s intervals with 10 bursts given at 5 Hz per train and 4 pulses at 100 Hz per burst. Statistical analysis was carried out by using two-tailed Student's t-test. For representative raw data see Figure S12.

oligomeric Aβ = target: T1, oligomeric Aβ (Homo sapiens, UniProt P05067); test: ThT binding experiment on oligomeric Aβ; settings: oligomeric Aβ + ligand 1∶1, up to 24 h
T1 construct: a depsipeptide derivative of Aβ(1–42) was utilized; made in house; host or cells: chemical peptide synthesis (no expression host)
Source text: The data on 7 were in agreement with its largely helical structure, also found via NMR. […] This was in accord with the NMR results obtained for the recognition segment 1. The secondary structure was probed also with ThT binding experiments (Figure 9B). Pure Aβ oligomers bound ThT at a certain level. This was in accord with the staining with antibody OC; both are capable of recognizing the fibrillar (or protofibrillar) oligomers. […] The latter process is similar to affinity precipitation.
(A) Observed ellipticities in ECD for 36 μM Aβ oligomer (thick black), 9 μM 7 (thin black), and 36 μM Aβ +9 μM 7 (thick dashed). The hypothetical sum of the ECD curves of the pure samples (thin dashed). (B) ThT binding experiment carried out on 36 µM oligomeric Aβ (white bars) and on 36 µM oligomeric Aβ +7 1∶1 mixtures. The relative fluorescence values were monitored up to 24 h.
ThT (Sigma-Aldrich) was dissolved in 50 mM NaH2PO4/Na2HPO4 buffer (pH = 7.0) to a final concentration of 25 μM. […] Two identical 50 μM Aβ oligomer samples were prepared and one of them was mixed with 7 to a final concentration of 50 μM, and the ThT signal intensity was monitored up to further 24 h. […] ThT fluorescence was measured on a plate reader at […] and λem = 480 nm. Data mean values and S.D. were calculated from three parallel measurements.

Aβ oligomers = target: T2, Aβ oligomers (Homo sapiens, UniProt P05067); test: Ligand-induced precipitation during ITC titration, followed by DLS; settings: 72 μM Aβ oligomer
T2 construct: a depsipeptide derivative of Aβ(1–42) was utilized; made in house; host or cells: chemical peptide synthesis (no expression host)
Experimental: Binding of 7 to the Aβ oligomers was monitored by means of isothermal titration calorimetry (ITC). […] The titrations were run at 288 K in order to improve the signal to noise ratio, and just above the precipitation limit as the ITC method is sensitive to the thermal noise caused by the stirring of large particles. […] These values strongly supported tight binding between the Aβ oligomer species and 7.
For DLS measurements, 500 µL Aβ(1–42) solution (c = 72 µM) was prepared in PBS, and placed in a low–volume sizing cell. Size distribution was measured at 25°C on a Malvern Zetasizer Nano ZS Instrument (Malvern Instruments Ltd. Worcestershire, UK) equipped with a He-Ne laser (633 nm) by means of Non-Invasive Back Scatter (NIBS®) technology, which involves detection of the scattered light at an angle of 173°. A titration routine was formulated consisting of 12 independent measurements with a 2-min delay after each. The calculated amount of 7 solution was added to the Aβ after every second measurement. During the titration, the molar quantity of 7 varied between 0–35 µM. For a single measurement, the correlation function and distribution of the apparent hydrodynamic diameter (dh) over the scattered intensity of the particles were determined on the basis of 14 scans. […]

For `N=C(N)NCCC[C@@H](CC(=O)N[C@H]1CCCC[C@@H]1C(=O)N[C@H]1CCCC[C@@H]1C(=O)N[C@@H](CC(=O)O)CC(=O)N[C@H]1CCCC[C@@H]1C(=O)NCC(=O)NCC(=O)N[C@@H](CSC1CC(=O)N(CCC(=O)NCCNC(=O)CCN(CCC(=O)NCCNC(=O)CCN2C(=O)CC(SC[C@H](NC(=O)CNC(=O)CNC(=O)[C@H]3CCCC[C@@H]3NC(=O)C[C@H](CC(=O)O)NC(=O)[C@H]3CCCC[C@@H]3NC(=O)[C@H]3CCCC[C@@H]3NC(=O)C[C@H](CCCNC(=N)N)NC(=O)[C@H]3CCCC[C@@H]3N)C(N)=O)C2=O)CCN(CCC(=O)NCCNC(=O)CCN2C(=O)CC(SC[C@H](NC(=O)CNC(=O)CNC(=O)[C@H]3CCCC[C@@H]3NC(=O)C[C@H](CC(=O)O)NC(=O)[C@H]3CCCC[C@@H]3NC(=O)[C@H]3CCCC[C@@H]3NC(=O)C[C@H](CCCNC(=N)N)NC(=O)[C@H]3CCCC[C@@H]3N)C(N)=O)C2=O)CCC(=O)NCCNC(=O)CCN2C(=O)CC(SC[C@H](NC(=O)CNC(=O)CNC(=O)[C@H]3CCCC[C@@H]3NC(=O)C[C@H](CC(=O)O)NC(=O)[C@H]3CCCC[C@@H]3NC(=O)[C@H]3CCCC[C@@H]3NC(=O)C[C@H](CCCNC(=N)N)NC(=O)[C@H]3CCCC[C@@H]3N)C(N)=O)C2=O)C1=O)C(N)=O)NC(=O)[C@H]1CCCC[C@@H]1N` (stereo partly shown) [Compound 7], the “LTP (potentiation) with Aβ(1–42) oligomers and ligand together” value ([1]; 720 nM Aβ(1–42) oligomers + 950 nM ligand, 180 min after LTP induction) was 195±5%, the “LTP (potentiation) with ligand alone” value ([1]; 950 nM ligand, no Aβ oligomers) was 184±16% and the “Effect on ThT binding of Aβ oligomers” value (oligomeric Aβ) was “no significant effect on the ThT binding”. For the same compound, the “Concentration-dependent precipitation of Aβ oligomers during titration (ITC/DLS)” value (Aβ oligomers) was “the precipitation started just before the equivalence point of the second stage”.
